# Read-outs that look alike come from different tables or passages of the source.
# How the values were obtained:
# Assay type in all cases: cell-based
# E. faecalis = test: MIC, Gram-positive bacteria: E. faecalis; conditions: Enterococcus faecalis, column 1, read-out: Minimal Inhibitory Concentration (MIC) E. faecalis
# E. faecium ATCC 35667 = test: MIC, Gram-positive bacteria: E. faecium ATCC 35667; conditions: Enterococcus faecium, ATCC35667, column 2, read-out: Minimal Inhibitory Concentration (MIC) E. faecium ATCC 35667
# E. faecium VRE; vanA = test: MIC, Gram-positive bacteria: E. faecium VRE; vanA; conditions: Enterococcus faecium, column 3, read-out: Minimal Inhibitory Concentration (MIC) E. faecium VRE
# S. aureus = test: MIC, Gram-positive bacteria: S. aureus (strains not named); conditions: Staphylococcus aureus, read-out: Minimal Inhibitory Concentration (MIC) S. aureus
# [1] = test system: S. aureus Vat A streptogramin; test: MIC, Gram-positive bacteria: S. aureus Vat A streptogramin; conditions: Staphylococcus aureus; Gram-positive; column 5; read-out: Minimal Inhibitory Concentration (MIC) S. aureus Vat A streptogramin
# [2] = test system: S. aureus Linezolid-resistant; cfr; test: MIC, Gram-positive bacteria: S. aureus Linezolid-resistant; cfr; conditions: Staphylococcus aureus, column 9, read-out: Minimal Inhibitory Concentration (MIC) S. aureus Linezolid-resistant
# S. pneumoniae = test: MIC, Gram-positive bacteria: S. pneumoniae; conditions: Streptococcus pneumoniae, column 10, read-out: Minimal Inhibitory Concentration (MIC) S. pneumoniae
# [3] = test system: K. pneumoniae multidrug-resistant; test: MIC, Gram-negative bacteria: K. pneumoniae multidrug-resistant; conditions: Klebsiella pneumoniae, read-out: Minimal Inhibitory Concentration (MIC) K. pneumoniae multidrug-resistant
# P. aeruginosa ATCC 27853 = test: MIC, Gram-negative bacteria: P. aeruginosa ATCC 27853; conditions: Pseudomonas aeruginosa, ATCC27853, read-out: Minimal Inhibitory Concentration (MIC) P. aeruginosa ATCC 27853
# [4] = test system: P. aeruginosa MDR clinical isolate; test: MIC, Gram-negative bacteria: P. aeruginosa MDR clinical isolate; conditions: Pseudomonas aeruginosa, read-out: Minimal Inhibitory Concentration (MIC) P. aeruginosa MDR clinical isolate
# H. influenzae ATCC 49247 = test: MIC, Gram-negative bacteria: H. influenzae ATCC 49247; conditions: Haemophilus influenzae, ATCC49247, read-out: Minimal Inhibitory Concentration (MIC) H. influenzae ATCC 49247
# Gram-Negative Organisms = test: microbe, parasite or virus in culture
# [5] = first unnamed S. aureus column (c4)
# [6] = fourth unnamed S. aureus column (c8)
# [7] = second unnamed S. aureus column (c6)
# [8] = third unnamed S. aureus column (c7)
# [9] = Acinetobacter baumannii, ATCC19606, read-out: Minimal Inhibitory Concentration (MIC), A. baumannii ATCC 19606
# [10] = Escherichia coli, ATCC25922, read-out: Minimal Inhibitory Concentration (MIC), E. coli ATCC 25922
# [11] = Escherichia coli, read-out: Minimal Inhibitory Concentration (MIC), E. coli BAS2006, OMP C, OMP F
# [12] = Escherichia coli, read-out: Minimal Inhibitory Concentration (MIC), E. coli olC efflux defective
# [13] = Escherichia coli, read-out: Minimal Inhibitory Concentration (MIC), E. coli permeability mutant BAS1314, IMP4213ZAB::TN10
# [14] = Klebsiella pneumoniae, ATCC43816, read-out: Minimal Inhibitory Concentration (MIC), K. pneumoniae ATCC 43816
Compound,MIC (E. faecalis) [µg/mL],MIC (E. faecium ATCC 35667) [µg/mL],MIC (E. faecium VRE; vanA) [µg/mL],MIC (S. aureus; [5]) [µg/mL],MIC (S. aureus; [6]) [µg/mL],MIC (S. aureus; [7]) [µg/mL],MIC (S. aureus; [8]) [µg/mL],MIC [1] [µg/mL],MIC [2] [µg/mL],MIC (S. pneumoniae) [µg/mL],MIC [3] [µg/mL],MIC (P. aeruginosa ATCC 27853) [µg/mL],MIC [4] [µg/mL],MIC (H. influenzae ATCC 49247) [µg/mL],MIC (Gram-Negative Organisms; [9]) [µg/mL],MIC (Gram-Negative Organisms; [10]) [µg/mL],MIC (Gram-Negative Organisms; [11]) [µg/mL],MIC (Gram-Negative Organisms; [12]) [µg/mL],MIC (Gram-Negative Organisms; [13]) [µg/mL],MIC (Gram-Negative Organisms; [14]) [µg/mL]
CC1=C\[C@@H](O)CC(=O)Cc2nc(co2)C(=O)N2CCC[C@@H]2C(=O)O[C@H]([C@@H](C)COC(=O)Nc2ccnc(Br)c2)[C@H](C)/C=C/C(=O)NC\C=C\1 [SA0110081],> 64,32,> 64,> 64,32,> 64,> 64,> 64,> 64,32,> 64,> 64,> 64,> 64,> 64,> 64,32,4,32,> 64
CC1=C\[C@@H](O)CC(=O)Cc2nc(co2)C(=O)N2CCC[C@@H]2C(=O)O[C@H]([C@@H](C)COC(=O)Nc2ccc(Br)nc2)[C@H](C)/C=C/C(=O)NC\C=C\1 [SA0110082],> 64,32,> 64,> 64,32,> 64,> 64,> 64,> 64,8,> 64,> 64,> 64,64,> 64,> 64,32,4,16,> 64
CC1=C\[C@@H](O)CC(=O)Cc2nc(co2)C(=O)N2CCC[C@@H]2C(=O)O[C@H]([C@@H](C)COC(=O)Nc2coc(C)n2)[C@H](C)/C=C/C(=O)NC\C=C\1 [SA0110095],> 64,32,> 64,> 64,64,> 64,> 64,> 64,> 64,16,> 64,> 64,> 64,64,> 64,> 64,32,8,16,> 64
CC1=C\[C@@H](O)CC(=O)Cc2nc(co2)C(=O)N2CCC[C@@H]2C(=O)O[C@H]([C@@H](C)COC(=O)Nc2csc(C)n2)[C@H](C)/C=C/C(=O)NC\C=C\1 [SA0110098],> 64,16,64,64,32,32,64,> 64,> 64,16,> 64,> 64,> 64,32,> 64,> 64,16,2,8,> 64
CC1=C\[C@@H](O)CC(=O)Cc2nc(co2)C(=O)N2CCC[C@@H]2C(=O)O[C@H]([C@@H](C)COC(=O)Nc2cnccn2)[C@H](C)/C=C/C(=O)NC\C=C\1 [SA0110101],> 64,64,> 64,> 64,> 64,> 64,> 64,> 64,> 64,32,> 64,> 64,> 64,64,> 64,> 64,64,8,16,> 64
CC1=C\[C@@H](O)CC(=O)Cc2nc(co2)C(=O)N2CCC[C@@H]2C(=O)O[C@H]([C@@H](C)COC(=O)Nc2ccn(C)n2)[C@H](C)/C=C/C(=O)NC\C=C\1 [SA0110113],> 64,64,> 64,> 64,> 64,> 64,> 64,> 64,> 64,8,> 64,> 64,> 64,64,> 64,> 64,64,8,16,> 64
CC1=C\[C@@H](O)CC(=O)Cc2nc(co2)C(=O)N2CCC[C@@H]2C(=O)O[C@H]([C@@H](C)COC(=O)Nc2cc(C)on2)[C@H](C)/C=C/C(=O)NC\C=C\1 [SA0110115],> 64,32,> 64,> 64,64,> 64,> 64,> 64,> 64,16,> 64,> 64,> 64,64,> 64,> 64,64,8,16,> 64
CC1=C\[C@@H](O)CC(=O)Cc2nc(co2)C(=O)N2CCC[C@@H]2C(=O)O[C@H]([C@@H](C)COC(=O)Nc2ccc3ccccc3n2)[C@H](C)/C=C/C(=O)NC\C=C\1 [SA0110117],> 64,16,32,16,16,16,32,> 64,> 64,4,> 64,> 64,> 64,> 64,> 64,> 64,8,2,4,> 64
